For series [1] the following is noted: human gut metagenome, 24 h, 2 µM.
The conditions of series [2]: human gut metagenome, 24 h, 2 µM. This is another data set of the same source.
For series [3] the following is noted: human gut metagenome, 24 h, 2 µM. The source holds these as a separate data set.
For series [4] the following is noted: human gut metagenome, 24 h, 2 µM. The source holds these as a separate data set.
The conditions of series [5]: human gut metagenome, 24 h, 2 µM. This is another data set of the same source.
Series [6] in a line: The drug is tested on Z-017 corresponding to mouse gut metagenome with ENA study accession number: PRJEB37062 and ENA sample accession number: ERS12561816 for biotransformation under anaerobic condition. The drug concentrations were measured over 9 timepoints collected between 0 and 24 hours of incubation by liquid-chromatography-coupled mass spectrometry (LC–MS). The conditions noted are these: 2 µM.

Series [7] can be described thus: The drug is tested on WLS-027 corresponding to human gut metagenome with ENA study accession number: PRJEB37062 and ENA sample accession number: ERS12561744 for biotransformation under anaerobic condition. The drug concentrations were measured over 9 timepoints collected between 0 and 24 hours of incubation by liquid-chromatography-coupled mass spectrometry (LC–MS). The conditions noted are these: 2 µM.

The nature of series [8]: The drug is tested on WLS-240 corresponding to human gut metagenome with ENA study accession number: PRJEB37062 and ENA sample accession number: ERS12561773 for biotransformation under anaerobic condition. The drug concentrations were measured over 9 timepoints collected between 0 and 24 hours of incubation by liquid-chromatography-coupled mass spectrometry (LC–MS). The conditions noted are these: 2 µM.

The nature of series [9]: The drug is tested on Z-014 corresponding to rat gut metagenome with ENA study accession number: PRJEB37062 and ENA sample accession number: ERS12561814 for biotransformation under anaerobic condition. The drug concentrations were measured over 9 timepoints collected between 0 and 24 hours of incubation by liquid-chromatography-coupled mass spectrometry (LC–MS). The conditions noted are these: 2 µM.

For series [10] the following is noted: human gut metagenome, 24 h, 2 µM. The source holds these as a separate data set.
The nature of series [11]: The drug is tested on Z-013 corresponding to rabbit gut metagenome with ENA study accession number: PRJEB37062 and ENA sample accession number: ERS12561813 for biotransformation under anaerobic condition. The drug concentrations were measured over 9 timepoints collected between 0 and 24 hours of incubation by liquid-chromatography-coupled mass spectrometry (LC–MS). The conditions noted are these: 2 µM.

The conditions of series [12]: human gut metagenome, 24 h, 2 µM. The source holds these as a separate data set.
A short description of series [13]: The drug is tested on Z-026 corresponding to metagenome with ENA study accession number: PRJEB37062 and ENA sample accession number: ERS12561825 for biotransformation under anaerobic condition. The drug concentrations were measured over 9 timepoints collected between 0 and 24 hours of incubation by liquid-chromatography-coupled mass spectrometry (LC–MS). The conditions noted are these: 2 µM.

Series [14] can be described thus: The drug is tested on WLS-077 corresponding to human gut metagenome with ENA study accession number: PRJEB37062 and ENA sample accession number: ERS12561750 for biotransformation under anaerobic condition. The drug concentrations were measured over 9 timepoints collected between 0 and 24 hours of incubation by liquid-chromatography-coupled mass spectrometry (LC–MS). The conditions noted are these: 2 µM.

The conditions of series [15]: human gut metagenome, 24 h, 2 µM. This is another data set of the same source.
Series [16] can be described thus: The drug is tested on WLS-170 corresponding to human gut metagenome with ENA study accession number: PRJEB37062 and ENA sample accession number: ERS12561762 for biotransformation under anaerobic condition. The drug concentrations were measured over 9 timepoints collected between 0 and 24 hours of incubation by liquid-chromatography-coupled mass spectrometry (LC–MS). The conditions noted are these: 2 µM.

Series [17] can be described thus: The drug is tested on Z-006 corresponding to mouse gut metagenome with ENA study accession number: PRJEB37062 and ENA sample accession number: ERS12561806 for biotransformation under anaerobic condition. The drug concentrations were measured over 9 timepoints collected between 0 and 24 hours of incubation by liquid-chromatography-coupled mass spectrometry (LC–MS). The conditions noted are these: 2 µM.

The conditions of series [18]: human gut metagenome, 24 h, 2 µM. The source holds these as a separate data set.
For series [19] the following is noted: human gut metagenome, 24 h, 2 µM. The source holds these as a separate data set.
The nature of series [20]: The drug is tested on Z-019 corresponding to rat gut metagenome with ENA study accession number: PRJEB37062 and ENA sample accession number: ERS12561818 for biotransformation under anaerobic condition. The drug concentrations were measured over 9 timepoints collected between 0 and 24 hours of incubation by liquid-chromatography-coupled mass spectrometry (LC–MS). The conditions noted are these: 2 µM.
Further: call rule not given here.

With `Cc1ccc(-c2nc3ccc(C)cn3c2CC(=O)N(C)C)cc1` [ZOLPIDEM], the “Bacterial Biotransformation” value was “Compound NOT metabolized” in [1]; “Compound metabolized” in series [2]; “Compound metabolized” in [3]; “Compound metabolized” in series [4]; “Compound metabolized” in [5]; “Compound NOT metabolized” in series [6]. Moreover, the “Bacterial Biotransformation” value in [7] is reported as “Compound NOT metabolized”; in series [8], “Compound metabolized”; in series [9] it was “Compound NOT metabolized”; in [10], “Compound NOT metabolized”; in series [11], “Compound NOT metabolized”; in series [12] it was “Compound NOT metabolized”. Further, the “Bacterial Biotransformation” value in series [13] is “Compound NOT metabolized”; in [14], “Compound NOT metabolized”; in series [15], “Compound metabolized”; in [16], “Compound NOT metabolized”; in series [17], “Compound NOT metabolized”; in [18], “Compound metabolized”. Further, the “Bacterial Biotransformation” value is recorded as “Compound metabolized” in [19] and “Compound NOT metabolized” in series [20].

Source of the values: ChEMBL document CHEMBL5724914, “Linking interpersonal differences in gut microbiota composition and drug biotransformation activity” (2024).
